Source: ChEMBL document CHEMBL3132769, “Fragment growing to retain or alter the selectivity of anchored kinase hinge-binding fragments” (Medchemcomm, 2014)

Legend:
[1] = target: MAP kinase-activated protein kinase 2 (Homo sapiens) (UniProt P49137); assay: Inhibition of human full length MAPKAPK2 expressed in baculovirus assessed as substrate phosphorylation using fluorescence-labelled peptides as substrate at 420 uM after 90 mins by microfluidic peptide phosphorylation assay
[2] = target: T1, Calcium/calmodulin-dependent protein kinase type IV (Homo sapiens) (UniProt Q16566); assay: Inhibition of human full length CAMK4 expressed in baculovirus assessed as substrate phosphorylation using fluorescence-labelled peptides as substrate at 420 uM after 90 mins by microfluidic peptide phosphorylation assay
T1 sequence (whole entry): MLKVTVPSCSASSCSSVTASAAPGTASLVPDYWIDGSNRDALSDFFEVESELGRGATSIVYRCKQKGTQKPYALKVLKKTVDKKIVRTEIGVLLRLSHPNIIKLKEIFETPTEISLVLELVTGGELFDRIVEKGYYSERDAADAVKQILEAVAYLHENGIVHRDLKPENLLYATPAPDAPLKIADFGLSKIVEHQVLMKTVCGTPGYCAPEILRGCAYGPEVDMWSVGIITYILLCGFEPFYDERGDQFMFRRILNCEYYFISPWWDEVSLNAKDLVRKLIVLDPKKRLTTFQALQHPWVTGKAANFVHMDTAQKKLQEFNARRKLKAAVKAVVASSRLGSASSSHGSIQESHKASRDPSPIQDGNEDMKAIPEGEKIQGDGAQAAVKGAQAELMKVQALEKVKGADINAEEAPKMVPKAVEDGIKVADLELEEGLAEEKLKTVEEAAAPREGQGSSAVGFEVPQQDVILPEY

[3] = target: RAC-alpha serine/threonine-protein kinase (Homo sapiens) (UniProt P31749); assay: Inhibition of human AKT1 catalytic domain expressed in baculovirus assessed as substrate phosphorylation using fluorescence-labelled peptides as substrate at 420 uM after 90 mins by microfluidic peptide phosphorylation assay
[4] = target: T2, Protein kinase C epsilon type (Homo sapiens) (UniProt Q02156); assay: Inhibition of human truncated PKC epsilon expressed in baculovirus assessed as substrate phosphorylation using fluorescence-labelled peptides as substrate at 420 uM after 90 mins by microfluidic peptide phosphorylation assay
T2 sequence (whole entry): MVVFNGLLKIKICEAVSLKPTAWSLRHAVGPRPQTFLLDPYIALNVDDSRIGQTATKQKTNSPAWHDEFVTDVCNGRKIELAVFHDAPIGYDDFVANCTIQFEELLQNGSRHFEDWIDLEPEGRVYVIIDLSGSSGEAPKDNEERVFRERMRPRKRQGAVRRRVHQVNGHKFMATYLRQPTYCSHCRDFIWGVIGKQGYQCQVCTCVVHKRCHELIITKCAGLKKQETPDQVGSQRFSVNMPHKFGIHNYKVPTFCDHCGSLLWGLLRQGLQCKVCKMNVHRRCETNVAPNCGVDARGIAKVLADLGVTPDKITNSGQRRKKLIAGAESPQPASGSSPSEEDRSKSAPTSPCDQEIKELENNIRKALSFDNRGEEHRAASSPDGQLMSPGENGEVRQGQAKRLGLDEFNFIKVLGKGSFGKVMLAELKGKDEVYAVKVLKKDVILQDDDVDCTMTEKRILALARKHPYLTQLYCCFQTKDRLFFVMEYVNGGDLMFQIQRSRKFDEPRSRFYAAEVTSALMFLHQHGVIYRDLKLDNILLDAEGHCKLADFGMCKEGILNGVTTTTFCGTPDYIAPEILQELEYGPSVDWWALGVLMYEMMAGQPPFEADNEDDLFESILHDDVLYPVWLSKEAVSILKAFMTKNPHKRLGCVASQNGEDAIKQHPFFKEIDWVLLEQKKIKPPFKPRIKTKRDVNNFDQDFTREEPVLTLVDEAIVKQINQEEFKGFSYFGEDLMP

[5] = target: Tyrosine-protein kinase ABL1 (Homo sapiens) (UniProt P00519); assay: Inhibition of human full-length ABL expressed in baculovirus assessed as substrate phosphorylation using fluorescence-labelled peptides as substrate at 0.2 uM after 90 mins by microfluidic peptide phosphorylation assay
[6] = target: Tyrosine-protein kinase Lyn (Homo sapiens) (UniProt P07948); assay: Inhibition of human full length LYN expressed in baculovirus assessed as substrate phosphorylation using fluorescence-labelled peptides as substrate at 0.2 uM after 90 mins by microfluidic peptide phosphorylation assay
[7] = target: Platelet-derived growth factor receptor alpha (Homo sapiens) (UniProt P16234); assay: Inhibition of human PDGFR alpha catalytic domain expressed in baculovirus assessed as substrate phosphorylation using fluorescence-labelled peptides as substrate at 0.2 uM after 90 mins by microfluidic peptide phosphorylation assay
Homo sapiens = organism: Homo sapiens; conditions: 0.1 uM
Description: Inhibition of human P70S6K catalytic domain expressed in baculovirus assessed as substrate phosphorylation using fluorescence-labelled peptides as substrate at 0.1 uM after 90 mins by microfluidic peptide phosphorylation assay

[8] = target: Protein kinase C beta type (Homo sapiens) (UniProt P05771); conditions: 0.1 uM
Description: Inhibition of human full length PKC beta2 expressed in baculovirus assessed as substrate phosphorylation using fluorescence-labelled peptides as substrate at 0.1 uM after 90 mins by microfluidic peptide phosphorylation assay

[9] = target: Fibroblast growth factor receptor 3 (Homo sapiens) (UniProt P22607); assay: Inhibition of human FGFR3 catalytic domain expressed in baculovirus assessed as substrate phosphorylation using fluorescence-labelled peptides as substrate at 0.1 uM after 90 mins by microfluidic peptide phosphorylation assay
[10] = target: Tyrosine-protein kinase Lck (Homo sapiens) (UniProt P06239); assay: Inhibition of human full length LCK expressed in baculovirus assessed as substrate phosphorylation using fluorescence-labelled peptides as substrate at 70 uM after 90 mins by microfluidic peptide phosphorylation assay
[11] = target: Tyrosine-protein kinase ABL2 (Homo sapiens) (UniProt P42684); assay: Inhibition of human truncated Arg expressed in baculovirus assessed as substrate phosphorylation using fluorescence-labelled peptides as substrate at 70 uM after 90 mins by microfluidic peptide phosphorylation assay
[12] = target: Tyrosine-protein kinase Fyn (Homo sapiens) (UniProt P06241); assay: Inhibition of human full length FYN expressed in baculovirus assessed as substrate phosphorylation using fluorescence-labelled peptides as substrate at 70 uM after 90 mins by microfluidic peptide phosphorylation assay
[13] = target: Tyrosine-protein kinase Fyn (Homo sapiens) (UniProt P06241); assay: Inhibition of human full length FYN expressed in baculovirus assessed as substrate phosphorylation using fluorescence-labelled peptides as substrate at 95 uM after 90 mins by microfluidic peptide phosphorylation assay
[14] = target: Calcium/calmodulin-dependent protein kinase type II subunit delta (Homo sapiens) (UniProt Q13557); assay: Inhibition of human full length CAMK2D expressed in baculovirus assessed as substrate phosphorylation using fluorescence-labelled peptides as substrate at 95 uM after 90 mins by microfluidic peptide phosphorylation assay
[15] = target: Epidermal growth factor receptor (Homo sapiens) (UniProt P00533); assay: Inhibition of human EGFR catalytic domain expressed in baculovirus assessed as substrate phosphorylation using fluorescence-labelled peptides as substrate at 95 uM after 90 mins by microfluidic peptide phosphorylation assay
[16] = target: Tyrosine-protein kinase BTK (Homo sapiens) (UniProt Q06187); assay: Inhibition of human full length BTK expressed in baculovirus assessed as substrate phosphorylation using fluorescence-labelled peptides as substrate at 95 uM after 90 mins by microfluidic peptide phosphorylation assay
[17] = target: Fibroblast growth factor receptor 4 (Homo sapiens) (UniProt P22455); assay: Inhibition of human FGFR4 catalytic domain expressed in baculovirus assessed as substrate phosphorylation using fluorescence-labelled peptides as substrate at 1000 uM after 90 mins by microfluidic peptide phosphorylation assay
Sequence of Fibroblast growth factor receptor 4 (Homo sapiens) (P22455 22-802 limits assumed): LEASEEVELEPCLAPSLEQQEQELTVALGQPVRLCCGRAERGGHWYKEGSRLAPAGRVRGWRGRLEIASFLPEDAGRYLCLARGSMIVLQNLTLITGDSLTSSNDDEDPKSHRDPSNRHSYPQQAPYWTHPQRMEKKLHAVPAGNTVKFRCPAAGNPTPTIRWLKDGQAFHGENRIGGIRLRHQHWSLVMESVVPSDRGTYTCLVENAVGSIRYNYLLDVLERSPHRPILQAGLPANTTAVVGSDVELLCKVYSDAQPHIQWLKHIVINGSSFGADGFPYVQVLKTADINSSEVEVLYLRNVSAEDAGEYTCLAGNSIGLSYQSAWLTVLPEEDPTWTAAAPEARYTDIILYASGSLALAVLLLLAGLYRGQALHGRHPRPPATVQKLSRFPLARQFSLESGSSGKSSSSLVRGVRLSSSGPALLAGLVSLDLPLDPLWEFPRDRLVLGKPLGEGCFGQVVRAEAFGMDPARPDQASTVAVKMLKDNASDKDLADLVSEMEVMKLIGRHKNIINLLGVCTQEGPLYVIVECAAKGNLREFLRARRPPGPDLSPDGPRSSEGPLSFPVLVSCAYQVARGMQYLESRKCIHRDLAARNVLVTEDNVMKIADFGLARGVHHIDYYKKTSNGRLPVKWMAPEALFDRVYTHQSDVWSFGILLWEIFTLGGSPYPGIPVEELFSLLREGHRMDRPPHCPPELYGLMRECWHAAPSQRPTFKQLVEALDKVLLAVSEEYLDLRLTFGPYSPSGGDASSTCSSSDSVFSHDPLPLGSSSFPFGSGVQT

Sequence of Tyrosine-protein kinase Fyn (Homo sapiens) (P06241 2-537 limits assumed): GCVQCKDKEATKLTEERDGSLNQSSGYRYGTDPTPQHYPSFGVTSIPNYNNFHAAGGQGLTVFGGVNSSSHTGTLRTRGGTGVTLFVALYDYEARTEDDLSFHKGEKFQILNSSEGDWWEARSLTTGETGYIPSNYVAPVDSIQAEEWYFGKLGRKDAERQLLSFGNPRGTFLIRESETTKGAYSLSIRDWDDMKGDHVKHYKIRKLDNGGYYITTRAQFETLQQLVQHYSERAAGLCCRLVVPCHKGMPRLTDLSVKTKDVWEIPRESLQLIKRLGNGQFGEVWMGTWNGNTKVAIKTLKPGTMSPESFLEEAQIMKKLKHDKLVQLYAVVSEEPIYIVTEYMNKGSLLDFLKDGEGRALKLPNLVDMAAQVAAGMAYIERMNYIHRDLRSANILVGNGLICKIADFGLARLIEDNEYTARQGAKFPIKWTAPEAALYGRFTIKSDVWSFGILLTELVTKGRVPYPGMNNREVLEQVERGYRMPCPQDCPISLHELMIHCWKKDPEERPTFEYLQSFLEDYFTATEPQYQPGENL
Sequence of Tyrosine-protein kinase ABL1 (Homo sapiens) (P00519 whole entry): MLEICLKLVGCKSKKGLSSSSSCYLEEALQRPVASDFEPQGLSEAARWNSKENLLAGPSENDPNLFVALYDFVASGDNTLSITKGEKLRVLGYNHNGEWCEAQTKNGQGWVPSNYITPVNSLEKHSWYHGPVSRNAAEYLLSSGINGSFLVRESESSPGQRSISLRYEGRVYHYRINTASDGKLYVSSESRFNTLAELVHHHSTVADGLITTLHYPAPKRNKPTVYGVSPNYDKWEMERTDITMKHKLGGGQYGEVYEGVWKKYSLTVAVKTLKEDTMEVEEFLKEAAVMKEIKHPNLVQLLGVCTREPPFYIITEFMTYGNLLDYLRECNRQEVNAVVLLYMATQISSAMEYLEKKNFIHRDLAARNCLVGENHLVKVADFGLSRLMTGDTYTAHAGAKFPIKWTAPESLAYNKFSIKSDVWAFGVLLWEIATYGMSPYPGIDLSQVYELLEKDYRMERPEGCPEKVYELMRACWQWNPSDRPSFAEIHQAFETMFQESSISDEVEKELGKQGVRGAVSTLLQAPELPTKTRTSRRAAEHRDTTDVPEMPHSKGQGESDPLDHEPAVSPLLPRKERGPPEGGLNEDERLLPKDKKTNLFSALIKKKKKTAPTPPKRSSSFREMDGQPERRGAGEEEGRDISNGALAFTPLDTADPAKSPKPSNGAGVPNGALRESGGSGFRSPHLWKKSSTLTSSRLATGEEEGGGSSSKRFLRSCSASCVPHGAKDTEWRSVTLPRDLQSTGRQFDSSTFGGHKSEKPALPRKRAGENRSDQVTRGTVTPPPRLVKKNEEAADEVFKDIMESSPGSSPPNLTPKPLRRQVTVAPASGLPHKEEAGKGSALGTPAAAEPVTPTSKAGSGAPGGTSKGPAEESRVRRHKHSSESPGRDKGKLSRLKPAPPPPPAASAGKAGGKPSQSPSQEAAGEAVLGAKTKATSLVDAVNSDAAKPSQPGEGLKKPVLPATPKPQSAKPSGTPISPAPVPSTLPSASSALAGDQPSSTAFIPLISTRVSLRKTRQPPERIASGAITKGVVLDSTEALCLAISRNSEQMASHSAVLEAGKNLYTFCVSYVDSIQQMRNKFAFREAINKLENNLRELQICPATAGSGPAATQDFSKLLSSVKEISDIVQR
Sequence of Tyrosine-protein kinase BTK (Homo sapiens) (Q06187 whole entry, the tested form may be a part): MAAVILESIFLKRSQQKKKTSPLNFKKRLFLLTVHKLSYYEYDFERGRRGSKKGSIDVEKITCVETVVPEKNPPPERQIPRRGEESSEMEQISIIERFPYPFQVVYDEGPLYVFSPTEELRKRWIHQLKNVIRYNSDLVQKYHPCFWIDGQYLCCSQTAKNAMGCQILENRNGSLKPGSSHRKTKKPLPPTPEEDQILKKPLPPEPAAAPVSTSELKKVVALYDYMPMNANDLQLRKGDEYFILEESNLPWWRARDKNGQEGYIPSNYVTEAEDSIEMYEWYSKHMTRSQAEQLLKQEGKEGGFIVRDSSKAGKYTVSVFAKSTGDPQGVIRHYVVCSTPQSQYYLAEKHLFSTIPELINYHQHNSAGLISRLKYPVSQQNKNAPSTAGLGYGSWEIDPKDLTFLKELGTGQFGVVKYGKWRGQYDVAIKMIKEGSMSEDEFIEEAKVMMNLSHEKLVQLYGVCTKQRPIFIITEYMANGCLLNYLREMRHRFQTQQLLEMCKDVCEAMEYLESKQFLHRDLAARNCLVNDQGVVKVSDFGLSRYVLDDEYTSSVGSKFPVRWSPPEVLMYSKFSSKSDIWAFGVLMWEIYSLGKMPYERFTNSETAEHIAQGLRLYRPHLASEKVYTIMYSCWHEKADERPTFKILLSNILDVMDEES
Sequence of Tyrosine-protein kinase ABL2 (Homo sapiens) (P42684 whole entry, the tested form may be a part): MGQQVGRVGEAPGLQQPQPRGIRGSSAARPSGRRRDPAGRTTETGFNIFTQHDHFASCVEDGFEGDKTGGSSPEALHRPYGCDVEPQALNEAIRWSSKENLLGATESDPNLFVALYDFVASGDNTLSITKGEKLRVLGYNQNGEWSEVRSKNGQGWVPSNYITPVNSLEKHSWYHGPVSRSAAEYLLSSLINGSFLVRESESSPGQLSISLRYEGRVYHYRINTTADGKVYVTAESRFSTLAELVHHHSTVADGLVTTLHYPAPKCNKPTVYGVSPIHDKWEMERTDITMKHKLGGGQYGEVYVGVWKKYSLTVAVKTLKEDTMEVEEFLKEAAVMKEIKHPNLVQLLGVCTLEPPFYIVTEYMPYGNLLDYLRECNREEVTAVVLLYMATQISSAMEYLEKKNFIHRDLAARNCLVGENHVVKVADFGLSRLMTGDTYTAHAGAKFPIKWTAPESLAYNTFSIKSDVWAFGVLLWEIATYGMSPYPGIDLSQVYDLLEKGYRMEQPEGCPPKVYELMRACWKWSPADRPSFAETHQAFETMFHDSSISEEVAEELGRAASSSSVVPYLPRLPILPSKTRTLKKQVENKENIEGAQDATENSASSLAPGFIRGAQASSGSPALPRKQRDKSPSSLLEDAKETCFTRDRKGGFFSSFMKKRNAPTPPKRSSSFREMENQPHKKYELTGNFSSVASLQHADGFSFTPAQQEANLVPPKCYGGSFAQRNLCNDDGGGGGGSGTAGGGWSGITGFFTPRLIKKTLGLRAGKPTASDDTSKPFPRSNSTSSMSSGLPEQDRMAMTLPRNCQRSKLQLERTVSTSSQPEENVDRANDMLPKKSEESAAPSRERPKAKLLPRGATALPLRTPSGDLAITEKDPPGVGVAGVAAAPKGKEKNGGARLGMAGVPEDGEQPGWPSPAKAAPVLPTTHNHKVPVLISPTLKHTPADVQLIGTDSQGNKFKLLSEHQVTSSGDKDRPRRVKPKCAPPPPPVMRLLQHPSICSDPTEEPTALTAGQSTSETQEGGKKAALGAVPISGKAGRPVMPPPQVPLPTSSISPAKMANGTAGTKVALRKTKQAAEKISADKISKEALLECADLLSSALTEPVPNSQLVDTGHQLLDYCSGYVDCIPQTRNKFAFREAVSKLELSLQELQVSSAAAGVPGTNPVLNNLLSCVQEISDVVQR
Sequence of Protein kinase C beta type (Homo sapiens) (P05771 2-671 limits assumed): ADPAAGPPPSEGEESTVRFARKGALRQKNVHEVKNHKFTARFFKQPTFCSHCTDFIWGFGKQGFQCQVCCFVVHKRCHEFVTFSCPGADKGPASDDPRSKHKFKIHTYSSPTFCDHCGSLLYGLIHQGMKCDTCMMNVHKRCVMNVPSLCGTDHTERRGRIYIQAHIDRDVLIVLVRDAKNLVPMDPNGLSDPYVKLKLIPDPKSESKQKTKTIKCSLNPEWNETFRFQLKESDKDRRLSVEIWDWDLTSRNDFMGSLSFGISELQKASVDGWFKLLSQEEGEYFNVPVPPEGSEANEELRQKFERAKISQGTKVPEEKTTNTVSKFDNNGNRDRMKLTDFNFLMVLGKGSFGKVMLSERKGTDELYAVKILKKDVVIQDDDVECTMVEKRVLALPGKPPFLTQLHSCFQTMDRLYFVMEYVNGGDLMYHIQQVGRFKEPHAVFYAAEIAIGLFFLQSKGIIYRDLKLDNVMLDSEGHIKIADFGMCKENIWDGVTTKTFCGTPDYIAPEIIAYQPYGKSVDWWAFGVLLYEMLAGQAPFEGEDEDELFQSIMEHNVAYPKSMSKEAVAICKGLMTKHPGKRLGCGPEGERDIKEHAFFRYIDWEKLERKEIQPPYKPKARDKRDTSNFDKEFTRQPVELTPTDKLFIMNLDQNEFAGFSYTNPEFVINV

Question: With `c1nc(N2CCOCC2)c2nc[nH]c2n1` as the compound, how does the inhibition [1] read?
Answer: 74%

Question: What about the inhibition [2] of the same compound?
Answer: 62%

Question: And the inhibition [3]?
Answer: 61.5%

Question: And the inhibition [4]?
Answer: 73.5%

Question: Which inhibition [5] does the source give for `Clc1ccc(C2(c3ccc(-c4ncnc5[nH]cnc45)cc3)CCNCC2)cc1` here?
Answer: 0%

Question: And the inhibition [6]?
Answer: 18%

Question: What about the inhibition [7] of the same compound?
Answer: 0.5%

Question: Which results are given for `C[C@H](CN(C)C)Oc1nc(Nc2cc3cccc(Cl)c3cn2)cnc1C#N`?
Answer: inhibition (Homo sapiens): 0%; inhibition [8]: 0%; inhibition [9]: 5.5%

Question: With `CNCc1ccc(-c2ncnc3[nH]cnc23)cc1` as the compound, how does the inhibition [10] read?
Answer: 38%

Question: And the inhibition [11]?
Answer: 33%

Question: And the inhibition [12]?
Answer: 31.5%

Question: With `NCCc1ccc(-c2ncnc3[nH]cnc23)cc1` as the compound, how does the inhibition [13] read?
Answer: 64.5%

Question: What about the inhibition [14] of the same compound?
Answer: 45.5%

Question: What about the inhibition [15] of the same compound?
Answer: 19.5%

Question: What about the inhibition [16] of the same compound?
Answer: 17%

Question: For `c1cnc2[nH]ccc2c1`, which inhibition [17] is on record?
Answer: 28.5%
